The term IC50 denotes the concentration that inhibits the measured activity by half. The low end stands for higher potency, the high end for lower potency. By inhibition is commonly meant the drop in the measured response relative to a control, in per cent. A word on the half-life: it is the time in which the quantity being followed falls by half. A lower half-life goes with fast loss.

Data set [1] concerns the target T1, Proto-oncogene tyrosine-protein kinase Src (Homo sapiens, UniProt P12931).
Description: Inhibition of human recombinant Src after 70 mins by FRET assay
For data set [2], the target named is T1, Proto-oncogene tyrosine-protein kinase Src. Description: Inhibition of human recombinant Src at 10 uM after 70 mins by FRET assay.
Data set [3] can be described thus: Plasma concentration in nude mouse at 50 mg/kg, po after 24 hrs. The data set is classed as ADME, organism-based. Also on record: dose 50 mg/kg, route oral.
Data set [4] is described as follows: Half life in rat liver microsomes. The data set is classed as ADME, Microsome. (In general: Liver microsomes are a subcellular fraction often used to study metabolism.)
Data set [5] deals with RAC-alpha serine/threonine-protein kinase (Homo sapiens, UniProt P31749). Description: Inhibition of AKT.
Data set [6] addresses Serine/threonine-protein kinase mTOR (Homo sapiens, UniProt P42345). Description: Inhibition of mTOR.
A short description of data set [7]: Half life in nude mouse microsomes. The data set is classed as ADME, Microsome.
Data set [8] deals with Tyrosine-protein kinase ABL1 (Homo sapiens, UniProt P00519). Description: Inhibition of Abl.
The nature of data set [9]: Inhibition of IKK.
Data set [10] can be described thus: Inhibition of IGFR.
In a further data set the test system is HT-29. Description: In vivo antitumor activity against human HT-29 cells at 150 mg/kg, po qd for 14 days measured on day 21. The class given is functional.
Data set [11] in a line: Half life in human microsomes. The class given is ADME, Microsome.
Data set [12] deals with Mitogen-activated protein kinase kinase kinase 8 (Homo sapiens, UniProt P41279). Nature of the data set: Inhibition of TPL2.

Some results are limits rather than exact numbers.

T1 sequence (P12931 2-536 limits assumed): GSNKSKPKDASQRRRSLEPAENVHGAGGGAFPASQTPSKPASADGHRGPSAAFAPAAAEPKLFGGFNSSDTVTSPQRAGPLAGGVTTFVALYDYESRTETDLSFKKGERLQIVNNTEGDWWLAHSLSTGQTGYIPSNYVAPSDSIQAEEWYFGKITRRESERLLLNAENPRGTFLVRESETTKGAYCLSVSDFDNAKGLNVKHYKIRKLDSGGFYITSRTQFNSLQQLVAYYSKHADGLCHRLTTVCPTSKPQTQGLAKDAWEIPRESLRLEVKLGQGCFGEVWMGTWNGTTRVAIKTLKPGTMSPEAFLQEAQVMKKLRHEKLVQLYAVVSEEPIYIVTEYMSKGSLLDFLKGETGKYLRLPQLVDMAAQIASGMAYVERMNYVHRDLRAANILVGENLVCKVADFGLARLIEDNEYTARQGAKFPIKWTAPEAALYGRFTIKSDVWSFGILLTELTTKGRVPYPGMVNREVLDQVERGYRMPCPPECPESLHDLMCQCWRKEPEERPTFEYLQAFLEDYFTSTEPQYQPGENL
Tyrosine-protein kinase ABL1, sequence (P00519 whole entry): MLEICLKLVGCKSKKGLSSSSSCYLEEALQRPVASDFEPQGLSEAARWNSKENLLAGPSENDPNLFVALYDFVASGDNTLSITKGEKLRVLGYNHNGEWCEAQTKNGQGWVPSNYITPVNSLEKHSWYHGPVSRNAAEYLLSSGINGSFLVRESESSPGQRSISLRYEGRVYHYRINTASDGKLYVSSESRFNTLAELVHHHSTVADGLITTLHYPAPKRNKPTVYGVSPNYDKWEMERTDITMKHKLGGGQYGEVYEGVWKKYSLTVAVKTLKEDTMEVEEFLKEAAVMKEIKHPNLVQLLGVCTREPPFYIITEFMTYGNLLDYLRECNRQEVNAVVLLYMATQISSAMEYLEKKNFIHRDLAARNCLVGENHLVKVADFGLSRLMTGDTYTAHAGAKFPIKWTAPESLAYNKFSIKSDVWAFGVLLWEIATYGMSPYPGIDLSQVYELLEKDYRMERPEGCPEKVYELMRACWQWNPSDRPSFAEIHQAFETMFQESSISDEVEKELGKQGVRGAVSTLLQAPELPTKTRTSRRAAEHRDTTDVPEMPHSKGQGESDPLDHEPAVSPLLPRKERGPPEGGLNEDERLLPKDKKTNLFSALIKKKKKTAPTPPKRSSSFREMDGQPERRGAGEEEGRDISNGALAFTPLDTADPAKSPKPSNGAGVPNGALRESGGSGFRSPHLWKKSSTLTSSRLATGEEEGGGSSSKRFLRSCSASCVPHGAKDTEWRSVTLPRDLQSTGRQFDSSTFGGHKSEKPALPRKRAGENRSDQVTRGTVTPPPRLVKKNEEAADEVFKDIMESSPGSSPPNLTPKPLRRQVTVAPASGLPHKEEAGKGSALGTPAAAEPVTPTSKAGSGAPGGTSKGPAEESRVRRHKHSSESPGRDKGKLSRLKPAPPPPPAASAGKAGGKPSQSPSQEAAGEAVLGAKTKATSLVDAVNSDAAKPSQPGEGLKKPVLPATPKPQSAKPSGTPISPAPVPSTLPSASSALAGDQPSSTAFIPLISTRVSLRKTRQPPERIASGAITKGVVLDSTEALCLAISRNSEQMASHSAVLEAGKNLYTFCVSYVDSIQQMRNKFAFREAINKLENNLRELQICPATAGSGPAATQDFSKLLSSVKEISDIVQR
Mitogen-activated protein kinase kinase kinase 8, sequence (P41279 whole entry): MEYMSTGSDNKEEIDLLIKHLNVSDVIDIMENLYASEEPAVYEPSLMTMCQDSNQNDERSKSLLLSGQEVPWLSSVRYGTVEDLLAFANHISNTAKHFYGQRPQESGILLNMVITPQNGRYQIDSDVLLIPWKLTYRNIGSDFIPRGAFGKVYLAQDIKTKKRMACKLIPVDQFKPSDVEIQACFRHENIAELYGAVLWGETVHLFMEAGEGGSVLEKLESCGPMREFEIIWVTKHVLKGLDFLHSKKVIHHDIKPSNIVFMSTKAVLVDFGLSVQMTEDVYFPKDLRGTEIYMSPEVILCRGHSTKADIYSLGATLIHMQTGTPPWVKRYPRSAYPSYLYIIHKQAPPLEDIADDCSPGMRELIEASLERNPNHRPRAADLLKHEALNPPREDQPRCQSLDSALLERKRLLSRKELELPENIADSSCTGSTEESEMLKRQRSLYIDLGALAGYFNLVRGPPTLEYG
RAC-alpha serine/threonine-protein kinase, sequence (P31749 whole entry): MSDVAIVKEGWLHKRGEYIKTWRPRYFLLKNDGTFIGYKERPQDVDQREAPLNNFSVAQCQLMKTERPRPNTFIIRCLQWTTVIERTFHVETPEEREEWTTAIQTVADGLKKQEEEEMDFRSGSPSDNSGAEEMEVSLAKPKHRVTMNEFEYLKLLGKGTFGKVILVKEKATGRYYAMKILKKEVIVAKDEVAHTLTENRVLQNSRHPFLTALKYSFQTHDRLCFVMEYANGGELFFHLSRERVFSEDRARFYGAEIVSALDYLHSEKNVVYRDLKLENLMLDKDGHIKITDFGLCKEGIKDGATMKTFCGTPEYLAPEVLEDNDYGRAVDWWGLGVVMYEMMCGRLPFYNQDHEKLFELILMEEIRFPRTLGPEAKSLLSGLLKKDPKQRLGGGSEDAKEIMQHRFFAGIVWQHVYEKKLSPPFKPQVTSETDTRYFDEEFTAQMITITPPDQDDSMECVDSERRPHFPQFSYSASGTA

For `COc1cc(Nc2c(C#N)cnc3cc(/C=C/c4cccc(CN(C)C)c4)c(OC)cc23)c(Cl)cc1Cl`, the IC50 in data set [1] was 3 nM.

On to `COc1cc(Nc2c(C#N)cnc3c(/C=C/CCN4CCOCC4)cccc23)c(Cl)cc1Cl`, for which the inhibition in [2] was 52%.

`COc1cc(Nc2c(C#N)cnc3ccc(/C=C/CCN4CCOCC4)cc23)c(Cl)cc1Cl`: the IC50 in data set [1] was determined as 340 nM.

Compound `COc1cc(Nc2c(C#N)cnc3cc(/C=C/c4ccc(CN(C)C)cc4)c(OC)cc23)c(Cl)cc1Cl` displayed an IC50 in data set [1] of 2.4 nM. Also, the concentration at 24 h in data set [3] was 10 ng/mL.

`COc1cc(Nc2c(C#N)cnc3cc(/C=C/c4ccc(CN(C)C)cn4)c(OC)cc23)c(Cl)cc1Cl` came in with a 50% inhibitory concentration (IC50) in data set [1] of 2.2 nM. In addition, in data set [3], the concentration at 24 h came to 36 ng/mL.

For `COc1cc(Nc2c(C#N)cnc3cc(/C=C/CCN(C)C)c(OC)cc23)c(Cl)cc1Cl`, in data set [1], it took 2.5 nM to reach half-maximal inhibition (IC50). This compound showed a half-life in data set [4] of over 30 min.

For the compound `COc1cc(Nc2c(C#N)cnc3cc(/C=C/CCN4CCN(C)CC4)c(OC)cc23)c(Cl)cc1Cl`, the IC50 in data set [5] is over 10000 nM; in [6], over 10000 nM; in [1], 2.1 nM; in data set [8], 0.4 nM; in [9], over 10000 nM; in data set [10] it was over 10000 nM. In [12], this compound had a half-maximal inhibitory concentration (IC50) of over 10000 nM. Besides, the half-life was 33 min in [7], 10 min in data set [4] and 11 min in data set [11]. In the data set on HT-29, the T/C is on record as 0.36.

In turn, `N#Cc1cnc2cc(/C=C/CCN3CCOCC3)ccc2c1Nc1ccc(Cl)cc1Cl` had an IC50 in data set [1] of 41 nM.

Regarding `COc1cc(Nc2c(C#N)cnc3cc(/C=C/CCCCCCCCCN4CCOCC4)c(OC)cc23)c(Cl)cc1Cl`, the IC50 in [1] stood at 130 nM.

Compound `COc1cc(Nc2c(C#N)cnc3cc(OCCCN4CCN(C)CC4)c(OC)cc23)c(Cl)cc1Cl` [BOSUTINIB] had a concentration at 24 h in data set [3] of 40 ng/mL. In the data set on HT-29, this compound gave a T/C of 0.43.

As to `CCN1CCN(CC/C=C/c2cc3ncc(C#N)c(Nc4cc(OC)c(Cl)cc4Cl)c3cc2OC)CC1`, the half-maximal inhibitory concentration (IC50) in [1] turned out to be 1.7 nM. In addition, the half-life in data set [4] is over 30 min.

Turning to `COc1cc(Nc2c(C#N)cnc3cc(/C=C/CCCN4CCOCC4)c(OC)cc23)c(Cl)cc1Cl`, the IC50 in data set [1] is 5.4 nM.

Compound `COc1cc(Nc2c(C#N)cnc3cc(/C=C/CCN4CCCCC4)c(OC)cc23)c(Cl)cc1Cl` registered an IC50 in [1] of 2.6 nM. In data set [4], this compound yielded a half-life of over 30 min.

As to `N#Cc1cnc2ccc(/C=C/CCN3CCOCC3)cc2c1Nc1ccc(Cl)cc1Cl`, in data set [1], the IC50 was determined as 1200 nM.

Compound `COc1cc(Nc2c(C#N)cnc3cc(/C=C/CCN4CCOCC4)c(OC)cc23)c(Cl)cc1Cl` registered an IC50 in [1] of 4.8 nM.

`COc1cc(Nc2c(C#N)cnc3cc(/C=C/CCCCN4CCOCC4)c(OC)cc23)c(Cl)cc1Cl`: inhibition in [1] was half-maximal at 18 nM (IC50).

In the case of `COc1cc(Nc2c(C#N)cnc3cc(/C=C/CCN4CCOCC4)ccc23)c(Cl)cc1Cl`, the IC50 in [1] stood at 15 nM.

`COc1cc(Nc2c(C#N)cnc3cc(/C=C/CN4CCOCC4)c(OC)cc23)c(Cl)cc1Cl` yielded an IC50 in data set [1] of 8.7 nM.

As to `COc1cc(Nc2c(C#N)cnc3cc(/C=C/c4cccc(CN(C)C)n4)c(OC)cc23)c(Cl)cc1Cl`, the half-maximal inhibitory concentration (IC50) in data set [1] was found to be 2.2 nM. In [3], this compound displayed a concentration at 24 h of 28 ng/mL.

In [1], `COc1cc(Nc2c(C#N)cnc3cc(/C=C/c4cc(CN(C)C)ccn4)c(OC)cc23)c(Cl)cc1Cl` registered a half-maximal inhibitory concentration (IC50) of 6.8 nM.

Values taken from ChEMBL document CHEMBL1157919, “Optimization of 7-alkene-3-quinolinecarbonitriles as Src kinase inhibitors” (Bioorg Med Chem Lett, 2010).
